From patent publication US10758534B2 (Vertex Pharmaceuticals Incorporated, priority 2014, dated 2020)

biological target: T1, F508del (Homo sapiens, UniProt P13569, DEL508-508); test: Protocol 2: FRET membrane potential optical assay (VIPR), identification of correction compounds; type: cell-based; conditions: F508del CFTR modulator activity; compounds of Table 1; read-out: EC30
T1 construct: expressed in transfected cells
Summary of the method: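 NIH3T3 mouse fibroblasts stably expressing F508del were treated with test compound for 16 hrs at 37° C. in serum-free medium; 27° C. incubation served as positive control. F508del was activated with 10 μM forskolin plus 20 μM genistein in Cl^−-free medium, and Cl^− efflux-driven depolarization was read by DiSBAC2(3)/CC2-DMPE FRET.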

T1 sequence (P13569 with tags, fused parts or gaps DEL508-508): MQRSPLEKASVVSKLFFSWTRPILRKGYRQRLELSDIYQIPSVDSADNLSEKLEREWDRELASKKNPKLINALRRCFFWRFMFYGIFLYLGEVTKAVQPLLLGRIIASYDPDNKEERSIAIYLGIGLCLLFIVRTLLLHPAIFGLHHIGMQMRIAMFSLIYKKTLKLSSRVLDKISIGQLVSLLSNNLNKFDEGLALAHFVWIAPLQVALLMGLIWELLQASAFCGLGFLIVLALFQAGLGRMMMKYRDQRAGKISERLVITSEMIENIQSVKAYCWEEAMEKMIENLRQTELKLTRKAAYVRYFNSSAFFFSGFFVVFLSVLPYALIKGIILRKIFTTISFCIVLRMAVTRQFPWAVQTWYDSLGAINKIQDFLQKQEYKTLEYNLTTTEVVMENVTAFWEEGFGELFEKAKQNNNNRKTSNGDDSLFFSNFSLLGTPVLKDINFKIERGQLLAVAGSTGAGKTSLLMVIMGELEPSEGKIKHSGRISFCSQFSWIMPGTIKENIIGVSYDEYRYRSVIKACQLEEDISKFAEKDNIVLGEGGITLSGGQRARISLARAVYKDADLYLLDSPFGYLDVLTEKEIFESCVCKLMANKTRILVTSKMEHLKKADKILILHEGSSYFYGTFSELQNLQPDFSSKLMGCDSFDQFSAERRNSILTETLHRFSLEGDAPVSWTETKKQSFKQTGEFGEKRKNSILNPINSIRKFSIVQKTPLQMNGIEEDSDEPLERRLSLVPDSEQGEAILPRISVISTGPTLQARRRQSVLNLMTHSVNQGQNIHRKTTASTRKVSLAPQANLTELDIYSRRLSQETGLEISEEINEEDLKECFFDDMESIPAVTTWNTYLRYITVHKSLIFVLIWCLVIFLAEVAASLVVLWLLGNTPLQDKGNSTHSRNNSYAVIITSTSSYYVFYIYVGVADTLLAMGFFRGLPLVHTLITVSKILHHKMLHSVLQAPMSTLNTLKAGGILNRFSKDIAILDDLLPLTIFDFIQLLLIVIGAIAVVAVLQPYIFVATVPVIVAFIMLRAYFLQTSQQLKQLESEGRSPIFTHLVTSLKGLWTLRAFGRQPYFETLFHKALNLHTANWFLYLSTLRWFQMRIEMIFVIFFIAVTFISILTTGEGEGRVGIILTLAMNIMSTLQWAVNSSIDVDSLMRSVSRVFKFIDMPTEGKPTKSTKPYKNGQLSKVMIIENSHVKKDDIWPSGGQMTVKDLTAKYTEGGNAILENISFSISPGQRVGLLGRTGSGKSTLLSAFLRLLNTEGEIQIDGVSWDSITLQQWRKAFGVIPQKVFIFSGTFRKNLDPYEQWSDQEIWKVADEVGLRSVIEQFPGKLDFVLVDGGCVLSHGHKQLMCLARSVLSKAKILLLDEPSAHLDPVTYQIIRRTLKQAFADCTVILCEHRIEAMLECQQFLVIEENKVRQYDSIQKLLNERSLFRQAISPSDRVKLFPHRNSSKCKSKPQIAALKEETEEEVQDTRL

EC30 [nM] | SMILES
< 3000 | CC1CN(c2ncccc2C(=O)NS(=O)(=O)c2cccc(N[C@H](C)C3CCCCC3)n2)C(C)(C)C1 (stereo partly drawn) [Compound 1996, N—[[6-[[(1R)-1-cyclohexylethyl]amino]-2-pyridyl]sulfonyl]-2-(2,2,4-trimethylpyrrolidin-1-yl)pyridine-3-carboxamide]
3000 to 10000 | C[C@@H]1CN(c2nc(-c3cccc(CO)c3)ccc2C(=O)NS(=O)(=O)c2ccc[nH]c2=O)C(C)(C)C1 [Compound 1997, 6-[3-(hydroxymethyl)phenyl]-N-[(2-oxo-1H-pyridin-3-yl)sulfonyl]-2-[(4S)-2,2,4-trimethylpyrrolidin-1-yl]pyridine-3-carboxamide]
< 3000 | COc1cc(-c2ccc(C(=O)NS(=O)(=O)c3cccnc3N)c(N3C[C@@H](C)CC3(C)C)n2)cc(F)c1F [Compound 1998, N-[(2-amino-3-pyridyl)sulfonyl]-6-(3,4-difluoro-5-methoxy-phenyl)-2-[(4S)-2,2,4-trimethylpyrrolidin-1-yl]pyridine-3-carboxamide]
3000 to 10000 | Cc1cc(O)ccc1-c1ccc(C(=O)NS(=O)(=O)c2cccnc2N)c(N2C[C@@H](C)CC2(C)C)n1 [Compound 1999, N-[(2-amino-3-pyridyl)sulfonyl]-6-(4-hydroxy-2-methyl-phenyl)-2-[(4S)-2,2,4-trimethylpyrrolidin-1-yl]pyridine-3-carboxamide]

same assay, conditions: Table 3; compounds of Table 1 as modulators of CFTR activity; protocol not stated

EC30 | SMILES
+++ (“+++” means <3 uM) | CC(C)Oc1cc(-c2ccc(C(=O)NS(=O)(=O)c3cccc(N)n3)c(N3[C@H](C)CC[C@@H]3C)n2)ccc1Cl [Compound 788, N-[(6-amino-2-pyridyl)sulfonyl]-6-(4-chloro-3-isopropoxy-phenyl)-2-[(2S,5R)-2,5-dimethylpyrrolidin-1-yl]pyridine-3-carboxamide]
+++ (“+++” means <3 uM) | C[C@@H]1CC[C@H](C)N1c1nc(-c2ccc(OCC3CC3)nc2)ccc1C(=O)NS(=O)(=O)c1cccc(N)n1 [Compound 789, N-[(6-amino-2-pyridyl)sulfonyl]-6-[6-(cyclopropylmethoxy)-3-pyridyl]-2-[(2S,5R)-2,5-dimethylpyrrolidin-1-yl]pyridine-3-carboxamide]
+++ (“+++” means <3 uM) | Cc1cccc(C)c1CN1Cc2ccccc2C1(C)C(=O)NS(=O)(=O)c1cccc(N)n1 (stereo not drawn) [Compound 790, N-[(6-amino-2-pyridyl)sulfonyl]-2-[(2,6-dimethylphenyl)methyl]-1-methyl-isoindoline-1-carboxamide]
++ (“++” means between 3 uM and 10 uM) | COCCCc1ccc(C(=O)NS(=O)(=O)c2cccc(N)n2)c(Oc2c(C)cc(C)cc2C)n1 [Compound 791, N-[(6-amino-2-pyridyl)sulfonyl]-6-(3-methoxypropyl)-2-(2,4,6-trimethylphenoxy)pyridine-3-carboxamide]
++ (“++” means between 3 uM and 10 uM) | Cc1cc(C)c(Oc2nc(C)ccc2C(=O)NS(=O)(=O)c2cccc(NCCN)n2)c(C)c1 [Compound 792, N-[[6-(2-aminoethylamino)-2-pyridyl]sulfonyl]-6-methyl-2-(2,4,6-trimethylphenoxy)pyridine-3-carboxamide]
+++ (“+++” means <3 uM) | Cc1cc(C)c(Oc2nc(-c3ccc(C)c(O)c3)ccc2C(=O)NS(=O)(=O)c2cccc(N)n2)c(C)c1 [Compound 793, N-[(6-amino-2-pyridyl)sulfonyl]-6-(3-hydroxy-4-methyl-phenyl)-2-(2,4,6-trimethylphenoxy)pyridine-3-carboxamide]
+++ (“+++” means <3 uM) | CC1CCN(c2nc(C(C)(C)C)ccc2C(=O)NS(=O)(=O)c2cccc(N)n2)CC1 [Compound 794, N-[(6-amino-2-pyridyl)sulfonyl]-6-tert-butyl-2-(4-methyl-1-piperidyl)pyridine-3-carboxamide]
+++ (“+++” means <3 uM) | COc1cccc(S(=O)(=O)NC(=O)c2ccc(-c3cc(F)cc(OCC(C)C)c3)nc2N2CC(C)CC2(C)C)n1 (stereo not drawn) [Compound 795]
